Our source for the LC retention time values is the RepoRT retention time repository (doi:10.1002/minf.201400016).

Molecules are shown by their SMILES.

The data set is described as follows: RP, Waters ACQUITY UPLC HSS T3, 150 × 2.1 mm, 1.7 µm, 30 °C, 0.4 mL/min, estimated dead time 0.83 min; A: water + 0.2% formic acid; B: 2% water + 98% acetonitrile + 0.2% formic acid; gradient (min/%B) 0/0 2.5/0 7.5/10 10/100 12/100 18/0 25/0. To be noted: stereoisomer not certain.
For the compound `NCCCCCCCCN` [1-8-diaminooctane], the LC retention time was 1.74 min. Consider `Cn1cc(CC(N)C(=O)O)c2ccccc21` (configuration not stated) [1-methyltryptophan], for which the LC retention time was 9.17 min. As for `O=C(O)Cn1ccc2ccccc21` [1H-indole-1-acetic acid], the LC retention time was 9.71 min.

For the compound `c1ccc2[nH]ccc2c1` [1H-indole], the LC retention time was 10.2 min. With `NC(CCCC(=O)O)C(=O)O` (configuration not stated) [2-aminoadipic acid], the LC retention time was 1.73 min. In the case of `Nc1cccc(C(=O)O)c1` [3-aminobenzoic acid], the LC retention time is 5.54 min. For `O=C(O)C=Cc1cccc(O)c1` [3-coumaric acid], the LC retention time is 9.54 min. Regarding `O=C(O)c1cccc(O)c1` [3-hydroxybenzoic acid], the LC retention time was 9.31 min. The result for `CCC(C)C(=O)C(=O)O` (configuration not stated) [3-methyl-2-oxovaleric acid] reads 9.23 min; that for `O=Cc1ccc(O)cc1` [4-hydroxybenzaldehyde], 9.4 min.

For `CC(C)CC(=O)C(=O)O` [4-methyl-2-oxopentanoic acid], the LC retention time is 9.39 min. For the compound `CSC[C@H]1O[C@@H](n2cnc3c(N)ncnc32)[C@H](O)[C@@H]1O` [5'-S-methyl-5'-thioadenosine], the LC retention time is 8.32 min. As for `COc1ccc2ncccc2c1` [6-methoxyquinoline], the LC retention time is 8.57 min. With `Cn1c[n+](C2OC(CO)C(O)C2O)c2nc(N)[nH]c(=O)c21` (configuration not stated) [7-methylguanosine], the LC retention time was 5.75 min.

Consider `CC(=CCNc1ncnc2c1ncn2C1OC(CO)C(O)C1O)CO` (stereo not drawn) [9-ribosyl-trans-zeatin], for which the LC retention time was 8.91 min. On to `Cc1cc(Cl)ccc1OCC(=O)O` [(4-chloro-2-methylphenoxy)acetic acid], for which the LC retention time was 10.3 min. For `CCCCCCCCCCCCCCCC[C@@H](O)C(=O)O` [(R)-2-hydroxystearic acid], the LC retention time was 12.4 min.

As for `O=C[C@@H](O)[C@H](O)[C@H](O)[C@H](O)CO` [D-altrose], the LC retention time was 1.55 min. Take `O=C(COP(=O)(O)O)[C@@H](O)[C@H](O)[C@H](O)CO` [D-fructose 1-phosphate]: the LC retention time was 1.49 min. As to `NCCCC[C@H](N)C(=O)O` [L-lysine], the LC retention time is 1.23 min. `NCCSCC(N)C(=O)O` [L-thialysine]: the LC retention time is 1.26 min. With `C[n+]1cccc(C(=O)[O-])c1` [N-methylnicotinate], the LC retention time was 1.73 min. For `O=C(O)CCCCC(=O)O` [adipic acid], the LC retention time is 8.14 min. Regarding `NC(=O)NC1NC(=O)NC1=O` (configuration not stated) [allantoin], the LC retention time is 1.63 min. The result for `O=c1cc(-c2ccc(O)cc2)oc2cc(O)cc(O)c12` [apigenin] reads 9.92 min; that for `CC(O)(CC(=O)O)C(=O)O` (configuration not stated) [citramalic acid], 5.17 min. As for `NC(=O)NCCCC(N)C(=O)O` (configuration not stated) [citrulline], the LC retention time was 1.55 min. In the case of `Nc1ccnc(=O)[nH]1` [cytosine], the LC retention time was 1.62 min. Consider `C=C1C(=O)OC2C1CCC(=C)C1CCC(=C)C12` (configuration not stated) [dehydrocostus lactone], for which the LC retention time is 10.9 min. For `Cc1cc(O)c2c(c1)C(=O)c1cc(O)cc(O)c1C2=O` [emodin], the LC retention time is 10.7 min.

Regarding `O=c1ccc2cc(OC3OC(CO)C(O)C(O)C3O)c(O)cc2o1` (configuration not stated) [esculin hydrate], the LC retention time is 8.95 min. The result for `OCC1OC(OCC2OC(O)C(O)C(O)C2O)C(O)C(O)C1O` (configuration not stated) [gentiobiose] reads 1.73 min. The same measure for `C[N+](C)(C)CC(=O)[O-]` [glycine betaine]: 1.55 min. In the case of `O=c1c(O)c(-c2ccc(O)cc2)oc2cc(O)cc(O)c12` [kaempferol], the LC retention time was 9.98 min. Regarding `CCC=CCC1C(=O)CCC1CC(=O)OC` (configuration not stated) [methyl jasmonate], the LC retention time was 10.6 min. Take `NC(=O)c1cccnc1` [nicotinamide]: the LC retention time is 3.33 min. Take `O=C(O)C1CCCN1` (configuration not stated) [proline]: the LC retention time is 1.73 min.

For the compound `O=c1c(O)c(-c2ccc(O)c(O)c2)oc2cc(O)cc(O)c12` [quercetin], the LC retention time was 9.79 min. Take `Oc1cccc2cccnc12` [quinolin-8-ol]: the LC retention time is 7.14 min.

On to `CC(=CCNc1ncnc2nc[nH]c12)CO` [trans-zeatin], for which the LC retention time was 7.57 min. Take `COc1cc(C(=O)O)ccc1O` [vanillic acid]: the LC retention time was 9.27 min. In the case of `COc1cc(C=O)ccc1O` [vanillin], the LC retention time was 9.53 min.
